In paper PMC11354310, “The Discovery of a Specific CKIP-1 Ligand for the Potential Treatment of Disuse Osteoporosis” (International Journal of Molecular Sciences, 2024) one finds Kd data, which are given here for two compounds.

Test [1] addresses T1, CKIP-1 (casein kinase 2 interacting protein-1) (Homo sapiens, UniProt Q53GL0).
T1 construct: gene PLEKHO1; GST-CKIP-1-C1 (C-terminal leucine zipper region, 345–409)
T1 sequence (Q53GL0 345-409): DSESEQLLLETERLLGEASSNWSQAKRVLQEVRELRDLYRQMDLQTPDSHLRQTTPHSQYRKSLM
The test can be described thus: SPR (Biacore T200, GST-CKIP-1-C1 captured on CM5 via anti-GST). Format: binding. Background: Surface plasmon resonance follows binding to a sensor surface in real time, without labels.

Test [2] addresses T1, CKIP-1 (casein kinase 2 interacting protein-1). Nature of the test: SPR (Biacore T200, GST-CKIP-1-C1 captured on CM5 via anti-GST); supported by CETSA in HEK293T cells with Flag-CKIP-1. Format: binding.

`CNC(=O)C1(NC(=O)/C=C/c2cc(I)cc(OC)c2O)CC1` [C170]: the equilibrium dissociation constant (Kd) (in general, a measure of binding affinity in units of concentration) in test [1] came out at 2170 nM.

The compound `CNC(=O)c1c(F)ccc(NS(=O)(=O)c2ccc(OC)nc2)c1-c1cc(C(F)(F)F)cc(C(F)(F)F)c1` [C77] gave a Kd in test [2] of 27.1 nM.
